Test results published in PubChem BioAssay (NCI).
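The compound was tested at five concentrations on cells cultured in 96-well plates, with a 48-hour exposure period. TGI denotes the concentration required for complete inhibition of growth.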

What was measured:
Test in all cases: DTP human tumour cell line panel, 48 h
NCI-H23 lung = test system: NCI-H23 lung
HCC-2998 colon = test system: HCC-2998 colon
NCI-H226 lung = test system: NCI-H226 lung
NCI/ADR-RES ovarian = test system: NCI/ADR-RES ovarian
SW-620 colon = test system: SW-620 colon
MALME-3M melanoma = test system: MALME-3M melanoma
HCT-116 colon = test system: HCT-116 colon
OVCAR-5 ovarian = test system: OVCAR-5 ovarian
M14 melanoma = test system: M14 melanoma
COLO 205 colon = test system: COLO 205 colon
HCT-15 colon = test system: HCT-15 colon
SK-OV-3 ovarian = test system: SK-OV-3 ovarian
LOX IMVI melanoma = test system: LOX IMVI melanoma
SK-MEL-2 melanoma = test system: SK-MEL-2 melanoma
SN12C renal = test system: SN12C renal
OVCAR-3 ovarian = test system: OVCAR-3 ovarian
SK-MEL-28 melanoma = test system: SK-MEL-28 melanoma
OVCAR-8 ovarian = test system: OVCAR-8 ovarian
MDA-N = test system: MDA-N
TK-10 renal = test system: TK-10 renal
K-562 leukemia = test system: K-562 leukemia
UO-31 renal = test system: UO-31 renal
DU-145 prostate = test system: DU-145 prostate
HOP-62 NSCLC = test system: HOP-62 NSCLC
SR leukemia = test system: SR leukemia
UACC-257 melanoma = test system: UACC-257 melanoma
SF-295 CNS = test system: SF-295 CNS
NCI-H460 lung = test system: NCI-H460 lung
CCRF-CEM leukemia = test system: CCRF-CEM leukemia
T-47D breast = test system: T-47D breast
EKVX NSCLC = test system: EKVX NSCLC
HL-60(TB) leukemia = test system: HL-60(TB) leukemia
SNB-19 CNS = test system: SNB-19 CNS
BT-549 breast = test system: BT-549 breast
MOLT-4 leukemia = test system: MOLT-4 leukemia
UACC-62 melanoma = test system: UACC-62 melanoma
U251 CNS = test system: U251 CNS
MCF7 breast = test system: MCF7 breast
786-0 renal = test system: 786-0 renal
RXF 393 renal = test system: RXF 393 renal
CAKI-1 renal = test system: CAKI-1 renal
HOP-92 NSCLC = test system: HOP-92 NSCLC
PC-3 prostate = test system: PC-3 prostate
MDA-MB-435 = test system: MDA-MB-435
SF-539 CNS = test system: SF-539 CNS
IGROV1 ovarian = test system: IGROV1 ovarian
NCI-H522 lung = test system: NCI-H522 lung
RPMI-8226 leukemia = test system: RPMI-8226 leukemia
KM12 colon = test system: KM12 colon
OVCAR-4 ovarian = test system: OVCAR-4 ovarian
A549 NSCLC = test system: A549 NSCLC
SF-268 CNS = test system: SF-268 CNS
ACHN renal = test system: ACHN renal
SK-MEL-5 melanoma = test system: SK-MEL-5 melanoma
HT29 colon = test system: HT29 colon
MDA-MB-231 breast = test system: MDA-MB-231 breast
A498 renal = test system: A498 renal
SNB-75 CNS = test system: SNB-75 CNS

Work on `C#Cc1cc(-c2nc3ccccc3s2)ccc1N` yielded a TGI (NCI-H23 lung) of 55.9 µM, a TGI (HCC-2998 colon) of 32.6 µM and a TGI (NCI-H226 lung) of 47.8 µM. For the same compound, the TGI (NCI/ADR-RES ovarian) was 86.5 µM, the TGI (SW-620 colon) was 81.8 µM and the TGI (MALME-3M melanoma) was 63.4 µM. It also gave a TGI (HCT-116 colon) of 32.9 µM, a TGI (OVCAR-5 ovarian) of over 100 µM and a TGI (M14 melanoma) of 34.5 µM. The TGI (COLO 205 colon) was 32.9 µM, the TGI (HCT-15 colon) was 42.8 µM and the TGI (SK-OV-3 ovarian) was 69.7 µM. For the same compound, the TGI (LOX IMVI melanoma) was 27.8 µM, the TGI (SK-MEL-2 melanoma) was 35.9 µM and the TGI (SN12C renal) was 79 µM. For the same compound, the TGI (OVCAR-3 ovarian) was 42.4 µM, the TGI (SK-MEL-28 melanoma) was 35.6 µM and the TGI (OVCAR-8 ovarian) was over 100 µM. For the same compound, the TGI (MDA-N) was 97.6 µM, the TGI (TK-10 renal) was 36.8 µM and the TGI (K-562 leukemia) was 89 µM. The TGI (UO-31 renal) was 56.3 µM, the TGI (DU-145 prostate) was 39.5 µM and the TGI (HOP-62 NSCLC) was over 100 µM. The TGI (SR leukemia) was 92.4 µM, the TGI (UACC-257 melanoma) was 27.9 µM and the TGI (SF-295 CNS) was 54.8 µM. For the same compound, the TGI (NCI-H460 lung) was 74.5 µM, the TGI (CCRF-CEM leukemia) was 56 µM and the TGI (T-47D breast) was 45.6 µM. The TGI (EKVX NSCLC) was 65 µM, the TGI (HL-60(TB) leukemia) was over 100 µM and the TGI (SNB-19 CNS) was 66.9 µM. For the same compound, the TGI (BT-549 breast) was 94.9 µM, the TGI (MOLT-4 leukemia) was 91.1 µM and the TGI (UACC-62 melanoma) was 36.6 µM. The TGI (U251 CNS) was 63.6 µM, the TGI (MCF7 breast) was 31.4 µM and the TGI (786-0 renal) was over 100 µM. It also gave a TGI (RXF 393 renal) of 93.9 µM, a TGI (CAKI-1 renal) of 50.4 µM and a TGI (HOP-92 NSCLC) of 44.7 µM. For the same compound, the TGI (PC-3 prostate) was 94.1 µM, the TGI (MDA-MB-435) was 40.4 µM and the TGI (SF-539 CNS) was 81.3 µM. For the same compound, the TGI (IGROV1 ovarian) was 53.8 µM, the TGI (NCI-H522 lung) was 32.3 µM and the TGI (RPMI-8226 leukemia) was 76.8 µM. The TGI (KM12 colon) was 46.9 µM, the TGI (OVCAR-4 ovarian) was 47.1 µM and the TGI (A549 NSCLC) was 42.8 µM. The TGI (SF-268 CNS) was over 100 µM, the TGI (ACHN renal) was 70.3 µM and the TGI (SK-MEL-5 melanoma) was 68.6 µM. For the same compound, the TGI (HT29 colon) was 33 µM.
`CC(=O)OCC1OC(N2C(=O)NC(=O)C3C=C4CCCCC4=CC32)C(OC(C)=O)C1OC(C)=O` (centres undefined) showed a TGI (NCI-H23 lung) of over 100 µM, a TGI (HCC-2998 colon) of over 100 µM and a TGI (SW-620 colon) of over 100 µM. It also gave a TGI (MALME-3M melanoma) of over 100 µM, a TGI (HCT-116 colon) of over 100 µM and a TGI (OVCAR-5 ovarian) of over 100 µM. The TGI (M14 melanoma) was over 100 µM, the TGI (COLO 205 colon) was over 100 µM and the TGI (HCT-15 colon) was over 100 µM. The TGI (SK-OV-3 ovarian) was over 100 µM, the TGI (LOX IMVI melanoma) was over 100 µM and the TGI (SK-MEL-2 melanoma) was over 100 µM. For the same compound, the TGI (SN12C renal) was over 100 µM, the TGI (OVCAR-3 ovarian) was over 100 µM and the TGI (SK-MEL-28 melanoma) was over 100 µM. The TGI (MDA-N) was over 100 µM, the TGI (TK-10 renal) was over 100 µM and the TGI (K-562 leukemia) was over 100 µM. For the same compound, the TGI (UO-31 renal) was over 100 µM, the TGI (DU-145 prostate) was over 100 µM and the TGI (SR leukemia) was over 100 µM. It also gave a TGI (UACC-257 melanoma) of over 100 µM, a TGI (SF-295 CNS) of over 100 µM and a TGI (NCI-H460 lung) of over 100 µM. It also gave a TGI (MDA-MB-231 breast) of over 100 µM, a TGI (CCRF-CEM leukemia) of over 100 µM and a TGI (T-47D breast) of over 100 µM. The TGI (EKVX NSCLC) was over 100 µM, the TGI (A498 renal) was over 100 µM and the TGI (HL-60(TB) leukemia) was over 100 µM. It also gave a TGI (SNB-19 CNS) of over 100 µM, a TGI (BT-549 breast) of over 100 µM and a TGI (MOLT-4 leukemia) of over 100 µM. For the same compound, the TGI (UACC-62 melanoma) was over 100 µM, the TGI (U251 CNS) was over 100 µM and the TGI (MCF7 breast) was over 100 µM. For the same compound, the TGI (RXF 393 renal) was over 100 µM, the TGI (CAKI-1 renal) was over 100 µM and the TGI (HOP-92 NSCLC) was over 100 µM. For the same compound, the TGI (PC-3 prostate) was over 100 µM, the TGI (MDA-MB-435) was over 100 µM and the TGI (SF-539 CNS) was over 100 µM. It also gave a TGI (IGROV1 ovarian) of over 100 µM, a TGI (NCI-H522 lung) of over 100 µM and a TGI (RPMI-8226 leukemia) of over 100 µM. It also gave a TGI (OVCAR-4 ovarian) of over 100 µM, a TGI (A549 NSCLC) of over 100 µM and a TGI (ACHN renal) of over 100 µM. The TGI (SK-MEL-5 melanoma) was over 100 µM.
`O=C1/C(=C/c2ccco2)N=C(c2ccccc2)N1c1ccc(S(=O)(=O)Nc2nccs2)cc1` gave a TGI (NCI-H23 lung) of over 100 µM, a TGI (HCC-2998 colon) of over 100 µM and a TGI (NCI-H226 lung) of over 100 µM. For the same compound, the TGI (NCI/ADR-RES ovarian) was over 100 µM, the TGI (SW-620 colon) was over 100 µM and the TGI (MALME-3M melanoma) was over 100 µM. The TGI (HCT-116 colon) was over 100 µM, the TGI (OVCAR-5 ovarian) was over 100 µM and the TGI (M14 melanoma) was over 100 µM. The TGI (COLO 205 colon) was over 100 µM, the TGI (HCT-15 colon) was 94.5 µM and the TGI (SK-OV-3 ovarian) was over 100 µM. It also gave a TGI (LOX IMVI melanoma) of over 100 µM, a TGI (SK-MEL-2 melanoma) of over 100 µM and a TGI (SN12C renal) of over 100 µM. The TGI (OVCAR-3 ovarian) was over 100 µM, the TGI (OVCAR-8 ovarian) was over 100 µM and the TGI (MDA-N) was over 100 µM. For the same compound, the TGI (TK-10 renal) was over 100 µM, the TGI (K-562 leukemia) was over 100 µM and the TGI (SNB-75 CNS) was over 100 µM. It also gave a TGI (UO-31 renal) of over 100 µM, a TGI (DU-145 prostate) of over 100 µM and a TGI (HOP-62 NSCLC) of over 100 µM. It also gave a TGI (SR leukemia) of over 100 µM, a TGI (UACC-257 melanoma) of 89.5 µM and a TGI (SF-295 CNS) of over 100 µM. The TGI (NCI-H460 lung) was over 100 µM, the TGI (MDA-MB-231 breast) was over 100 µM and the TGI (CCRF-CEM leukemia) was over 100 µM. For the same compound, the TGI (T-47D breast) was over 100 µM, the TGI (EKVX NSCLC) was over 100 µM and the TGI (HL-60(TB) leukemia) was over 100 µM. For the same compound, the TGI (BT-549 breast) was over 100 µM, the TGI (MOLT-4 leukemia) was over 100 µM and the TGI (UACC-62 melanoma) was over 100 µM. For the same compound, the TGI (U251 CNS) was over 100 µM, the TGI (MCF7 breast) was over 100 µM and the TGI (786-0 renal) was over 100 µM. For the same compound, the TGI (RXF 393 renal) was over 100 µM, the TGI (CAKI-1 renal) was over 100 µM and the TGI (HOP-92 NSCLC) was over 100 µM. It also gave a TGI (PC-3 prostate) of over 100 µM, a TGI (MDA-MB-435) of over 100 µM and a TGI (SF-539 CNS) of over 100 µM. It also gave a TGI (IGROV1 ovarian) of over 100 µM, a TGI (NCI-H522 lung) of over 100 µM and a TGI (RPMI-8226 leukemia) of over 100 µM. It also gave a TGI (KM12 colon) of over 100 µM, a TGI (OVCAR-4 ovarian) of over 100 µM and a TGI (A549 NSCLC) of over 100 µM. The TGI (SF-268 CNS) was over 100 µM, the TGI (ACHN renal) was over 100 µM and the TGI (SK-MEL-5 melanoma) was over 100 µM. For the same compound, the TGI (HT29 colon) was over 100 µM.
